What was measured:
MERTK = biological target: T1, MERTK (Homo sapiens, UniProt Q12866); test: TR-FRET kinase activity assay, MERTK; type: biochemical; settings: for IC50: TR-FRET activity assay, ATP at Km, 60 minutes, read-out: Mer IC50; for FLT3/Mer ratio (FLT3 IC50/Mer IC50): ratio of Mer to FLT3: FLT3 IC50/Mer IC50
T1 sequence (Q12866 21-999): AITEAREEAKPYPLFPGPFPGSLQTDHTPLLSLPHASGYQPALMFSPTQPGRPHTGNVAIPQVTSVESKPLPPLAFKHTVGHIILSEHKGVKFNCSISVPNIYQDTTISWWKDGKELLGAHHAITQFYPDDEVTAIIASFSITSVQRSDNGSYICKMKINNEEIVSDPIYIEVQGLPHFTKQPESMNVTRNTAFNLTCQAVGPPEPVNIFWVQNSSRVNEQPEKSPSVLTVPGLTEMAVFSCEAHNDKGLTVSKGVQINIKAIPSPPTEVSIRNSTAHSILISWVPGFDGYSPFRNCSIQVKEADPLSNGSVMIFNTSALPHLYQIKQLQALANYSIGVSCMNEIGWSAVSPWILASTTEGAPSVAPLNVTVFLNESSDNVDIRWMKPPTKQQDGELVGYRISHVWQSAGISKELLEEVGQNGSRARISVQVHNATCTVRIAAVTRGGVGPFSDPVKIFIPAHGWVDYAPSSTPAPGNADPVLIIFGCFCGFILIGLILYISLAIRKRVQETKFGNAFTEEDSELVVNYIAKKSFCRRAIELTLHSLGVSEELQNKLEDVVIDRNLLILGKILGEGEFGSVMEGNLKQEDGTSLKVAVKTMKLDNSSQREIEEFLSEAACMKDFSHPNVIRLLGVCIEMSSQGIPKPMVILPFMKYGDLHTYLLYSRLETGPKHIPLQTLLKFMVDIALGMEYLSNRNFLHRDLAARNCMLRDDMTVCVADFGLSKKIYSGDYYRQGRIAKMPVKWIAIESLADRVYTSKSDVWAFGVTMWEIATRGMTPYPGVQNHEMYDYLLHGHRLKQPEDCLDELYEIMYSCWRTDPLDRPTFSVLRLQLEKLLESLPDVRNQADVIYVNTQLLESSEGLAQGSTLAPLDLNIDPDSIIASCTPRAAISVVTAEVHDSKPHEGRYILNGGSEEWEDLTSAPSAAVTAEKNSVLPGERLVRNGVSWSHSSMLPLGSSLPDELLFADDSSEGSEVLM
Procedure: (§1) IC50 values for compound inhibition of AXL, FLT3, MERTK and TYRO3 activity were determined by using a TR-FRET activity assay. A polypeptide substrate with a fluorescent label is phosphorylated on a tyrosine by each enzyme, where the now phosphorylated product is bound by a Europium-labeled antibody specific to that phosphorylation site. The proximity between the antibody and the substrate gives a signal known as TR-FRET. As the enzyme is inhibited by compound, less phosphorylated peptide product is made causing a decrease in overall signal.
(§2) Activity assays were performed in a 384-well, small volume, black microplates in an active enzyme volume of 10 μL and final developed volume of 20 μL. Final assay conditions are 50 mM HEPES pH 7.5, 10 mM MgCl2, 1 mM EGTA, 0.01% Brij 35 and 1 mM DTT all at RT. Enzyme, substrate labeled peptide and compound are mixed, and then the reaction is initiated with the addition of ATP at Km concentration for each enzyme. The reaction is allowed to run 60 minutes and then quenched with a 12.5 mM EDTA (ethylenediamine tetraacetic acid) solution. The plate is then developed with the addition of Europium labeled antibody for a final volume of 20 μL and is then incubated for 30 minutes in darkness. Plates are read in a Pherastar plate reader. Data is analyzed in GraphPad PRISM.
(§3) The results of these assays are shown in Table 1, below, wherein “No.” designates compound number (FIG. 1); “A” represents a value of ≤100 nM; “B” a value of >100 nM and ≤1 μM; “C” a value of >1 μM and ≤10 μM; “D” a value of >10 μM; “ND” is not determined. The ratio of Mer to FLT3 is calculated as follows: FLT3 IC50/Mer IC50. “+” represents a ratio of >2.0 and <10; “++” represents a ratio of between 10 and 100; and “+++” represents a ratio of >100.

FLT3 = biological target: T2, FLT3 (Homo sapiens, UniProt P36888); test: TR-FRET kinase activity assay, FLT3; type: biochemical; settings: ATP at Km, 60 minutes
T2 sequence (P36888 27-993): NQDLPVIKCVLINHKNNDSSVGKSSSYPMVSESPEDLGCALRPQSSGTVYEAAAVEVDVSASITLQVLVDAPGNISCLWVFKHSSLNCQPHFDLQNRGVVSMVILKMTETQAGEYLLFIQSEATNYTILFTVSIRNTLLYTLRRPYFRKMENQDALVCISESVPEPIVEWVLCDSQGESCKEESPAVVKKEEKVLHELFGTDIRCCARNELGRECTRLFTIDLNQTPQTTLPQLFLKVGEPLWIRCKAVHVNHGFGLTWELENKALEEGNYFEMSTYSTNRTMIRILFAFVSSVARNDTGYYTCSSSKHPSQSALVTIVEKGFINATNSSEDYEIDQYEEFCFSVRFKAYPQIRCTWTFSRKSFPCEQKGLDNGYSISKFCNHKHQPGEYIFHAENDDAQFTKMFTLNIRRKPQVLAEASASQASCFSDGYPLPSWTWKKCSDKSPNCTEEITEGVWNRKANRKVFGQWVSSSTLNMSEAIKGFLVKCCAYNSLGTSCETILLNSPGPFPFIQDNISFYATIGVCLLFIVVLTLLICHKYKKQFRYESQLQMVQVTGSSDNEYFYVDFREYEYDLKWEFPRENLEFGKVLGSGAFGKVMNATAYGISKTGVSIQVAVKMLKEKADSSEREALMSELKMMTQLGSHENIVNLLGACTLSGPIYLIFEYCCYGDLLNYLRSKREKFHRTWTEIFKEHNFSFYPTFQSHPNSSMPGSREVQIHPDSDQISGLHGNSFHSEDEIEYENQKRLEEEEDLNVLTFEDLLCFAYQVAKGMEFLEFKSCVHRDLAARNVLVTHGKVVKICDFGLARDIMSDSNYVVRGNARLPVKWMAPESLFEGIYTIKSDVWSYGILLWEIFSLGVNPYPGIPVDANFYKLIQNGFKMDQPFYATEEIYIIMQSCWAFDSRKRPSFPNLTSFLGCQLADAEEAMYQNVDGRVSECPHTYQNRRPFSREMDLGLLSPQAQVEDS
Procedure: as §1, §2, §3

| SMILES | IC50 (MERTK) [nM] | FLT3/Mer ratio (FLT3 IC50/Mer IC50) (MERTK) | IC50 (FLT3) [nM] |
| --- | --- | --- | --- |
| COC[C@H](C)Nc1ncc2c(-c3cc(C)ccn3)cc([C@H]3CC[C@H](O)CC3)n2n1 [Compound 257] | ≤ 100 | +++ (“+++” represents a ratio of >100) | 1000 to 10000 |
| CNC(=O)c1ccc(-c2cc([C@H]3CC[C@H](O)CC3)n3nc(N[C@@H](C)CC(F)(F)F)ncc23)cn1 [Compound 263] | ≤ 100 | ++ (“++” represents a ratio of between 10 and 100) | ≤ 100 |
| C[C@H](Nc1ncc2c(-c3ccc(CN4CCOCC4)cc3)cc([C@H]3CC[C@H](O)CC3)n2n1)[C@H]1CCCO1 [Compound 204] | 100 to 1000 | ++ (“++” represents a ratio of between 10 and 100) | 1000 to 10000 |
| COC[C@H](C)Nc1ncc2c(-c3cccc(CN4CCOCC4)c3)cc([C@H]3CC[C@H](O)CC3)n2n1 [Compound 217] | ≤ 100 | +++ (“+++” represents a ratio of >100) | 100 to 1000 |
| COCC(C)Nc1ncc2c(-c3cnn(C4COC4)c3)cc(C3CCC(O)CC3)n2n1 (stereo not drawn) [Compound 221] | ≤ 100 | +++ (“+++” represents a ratio of >100) | 100 to 1000 |
| COC[C@H](C)Nc1ncc2c(-c3cn(C)nc3C)cc([C@H]3CC[C@H](O)CC3)n2n1 [Compound 260] | ≤ 100 | +++ (“+++” represents a ratio of >100) | 100 to 1000 |
| CC(Nc1ncc2c(-c3ccc(CN4CCOCC4)cc3)cc(C3CCC(O)CC3)n2n1)C(F)(F)F (stereo not drawn) [Compound 202] | ≤ 100 | +++ (“+++” represents a ratio of >100) | 100 to 1000 |
| COC[C@H](C)Nc1ncc2c(-c3cncc(F)c3)cc([C@H]3CC[C@H](O)CC3)n2n1 [Compound 195] | ≤ 100 | +++ (“+++” represents a ratio of >100) | 1000 to 10000 |
| COC[C@H](C)Nc1ncc2c(-c3cnn([C@H]4CCOC4)c3)cc([C@H]3CC[C@H](O)CC3)n2n1 [Compound 243] | ≤ 100 | +++ (“+++” represents a ratio of >100) | 100 to 1000 |
| COCC(C)Nc1ncc2c(-c3ccc(-c4nnc(C)o4)cc3)cc(C3CCC(O)CC3)n2n1 (stereo not drawn) [Compound 198] | ≤ 100 | +++ (“+++” represents a ratio of >100) | 100 to 1000 |
| CC(C)OC[C@H](C)Nc1ncc2c(-c3ccc(CN4CCOCC4)cc3)cc([C@H]3CC[C@H](O)CC3)n2n1 [Compound 214] | ≤ 100 | +++ (“+++” represents a ratio of >100) | 1000 to 10000 |
| COC[C@H](C)Nc1ncc2c(-c3ccc4c(c3)CC(=O)N4)cc([C@H]3CC[C@H](O)CC3)n2n1 [Compound 251] | ≤ 100 | +++ (“+++” represents a ratio of >100) | 100 to 1000 |
| COC[C@H](C)Nc1ncc2c(-c3cn(C[Si](C)(C)C)nn3)cc([C@H]3CC[C@H](O)CC3)n2n1 [Compound 248] | ≤ 100 | +++ (“+++” represents a ratio of >100) | 1000 to 10000 |
| COCCn1cc(-c2cc([C@H]3CC[C@H](O)CC3)n3nc(N[C@@H](C)COC)ncc23)cn1 [Compound 209] | ≤ 100 | +++ (“+++” represents a ratio of >100) | 100 to 1000 |
| COC[C@H](C)Nc1ncc2c(-c3cnn(C(C)(C)C)c3)cc([C@H]3CC[C@H](O)CC3)n2n1 [Compound 206] | ≤ 100 | +++ (“+++” represents a ratio of >100) | 1000 to 10000 |
| COC[C@H](C)Nc1ncc2c(-c3cnnc(C)c3)cc([C@H]3CC[C@H](O)CC3)n2n1 [Compound 267] | ≤ 100 | +++ (“+++” represents a ratio of >100) | 1000 to 10000 |
| COC[C@H](C)Nc1ncc2c(-c3cnn(CC(=O)N4CCN(C)CC4)c3)cc([C@H]3CC[C@H](O)CC3)n2n1 [Compound 240] | ≤ 100 | +++ (“+++” represents a ratio of >100) | 100 to 1000 |
| COC[C@H](C)Nc1ncc2c(-c3ccc4c(c3)CNC4=O)cc([C@H]3CC[C@H](O)CC3)n2n1 [Compound 252] | ≤ 100 | +++ (“+++” represents a ratio of >100) | 100 to 1000 |
| COC[C@H](C)Nc1ncc2c(-c3cnn(CCC#N)c3)cc([C@H]3CC[C@H](O)CC3)n2n1 [Compound 222] | ≤ 100 | +++ (“+++” represents a ratio of >100) | 100 to 1000 |
| C[C@@H](CC(F)(F)F)Nc1ncc2c(-c3cnn(C4COC4)c3)cc([C@H]3CC[C@H](O)CC3)n2n1 [Compound 269] | ≤ 100 | ++ (“++” represents a ratio of between 10 and 100) | ≤ 100 |
| CCCCC[C@H](C)Nc1ncc2c([C@H]3CC[C@@H](C(=O)N4CCOCC4)CC3)cc([C@H]3CC[C@H](O)CC3)n2n1 [Compound 109, ((cis)-4-(2-((S)-heptan-2-ylamino)-7-((trans)-4-hydroxycyclohexyl)pyrrolo[2,1-f][1,2,4]triazin-5-yl)cyclohexyl)(morpholino)methanone] | ≤ 100 | ++ (“++” represents a ratio of between 10 and 100) | 100 to 1000 |
| COC[C@H](C)Nc1ncc2c(-c3cnn(Cc4cccnc4)c3)cc([C@H]3CC[C@H](O)CC3)n2n1 [Compound 220] | ≤ 100 | +++ (“+++” represents a ratio of >100) | 100 to 1000 |
| COC[C@H](C)Nc1ncc2c(-c3cnn(C(C)(C)CO)c3)cc([C@H]3CC[C@H](O)CC3)n2n1 [Compound 265] | ≤ 100 | +++ (“+++” represents a ratio of >100) | 1000 to 10000 |

Source: patent publication US11040981B2, “Pyrrolotriazine compounds and methods of inhibiting TAM kinases” (Syros Pharmaceuticals, Inc., priority 2017, dated 2021)
